Measurements from ChEMBL document CHEMBL1147414, “Synthesis of galactopyranosyl amino alcohols as a new class of antitubercular and antifungal agents” (2004).
≈ marks a conversion by molar mass, not a printed value.

Columns and labels:
Aspergillus fumigatus = assay: Minimum inhibitory concentration against Aspergillus fumigatus; assay type: functional
Candida parapsilosis = assay: Minimum inhibitory concentration against Candida parapsilosis; assay type: functional; settings: Lodderomyces parapsilosis
Cryptococcus neoformans = assay: Minimum inhibitory concentration against Cryptococcus neoformans; assay type: functional
[1] = test system: Mycobacterium tuberculosis; assay: Minimum inhibitory concentration against Mycobacterium tuberculosis; assay type: functional
Trichophyton benhamiae = assay: Minimum inhibitory concentration against Trichophyton mentagrophytes; assay type: functional, Arthroderma benhamiae
Candida albicans = assay: Minimum inhibitory concentration against Candida albicans; assay type: functional
Sporothrix schenckii = assay: Minimum inhibitory concentration against Sporothrix schenckii
[2] = test system: Mycobacterium tuberculosis; assay: In vito growth of Mycobacterium tuberculosis BC-437 strain after 6 weeks; - indicates no growth; assay type: functional, organism-based
[3] = test system: Mycobacterium tuberculosis; assay: In vito growth of Mycobacterium tuberculosis VA-101 strain after 6 weeks; […] colonies; assay type: functional, organism-based
[4] = test system: Mycobacterium tuberculosis; assay: In vito growth of Mycobacterium tuberculosis BC-243 strain after 6 weeks; - indicates no growth; assay type: functional, organism-based
[5] = test system: Mycobacterium tuberculosis; assay: In vito growth of Mycobacterium tuberculosis BC-248 strain after 6 weeks; - indicates no growth; assay type: functional, organism-based
[6] = test system: Mycobacterium tuberculosis; assay: In vito growth of Mycobacterium tuberculosis BC-426 strain after 6 weeks; - indicates no growth; assay type: functional, organism-based
[7] = test system: Mycobacterium tuberculosis; assay: In vito growth of Mycobacterium tuberculosis BC-248 strain after 6 weeks; + indicates 1-20 colonies; assay type: functional, organism-based

SMILES | MIC (Aspergillus fumigatus) | MIC (Candida parapsilosis) | MIC (Cryptococcus neoformans) | MIC [1] | MIC (Trichophyton benhamiae) | MIC (Candida albicans) | MIC (Sporothrix schenckii) | Growth [2] | Growth [3] | Growth [4] | Growth [5] | Growth [6] | Growth [7]
CC1(C)O[C@H]2OC(COCC(O)CN3CCCC3)[C@@H]3OC(C)(C)O[C@@H]3[C@H]2O1 (stereo partly specified) | > 50 µg/mL | > 50 µg/mL | 25 µg/mL (≈ 64.5 µM) | > 50 µg/mL | 50 µg/mL (≈ 129 µM) | > 50 µg/mL | > 50 µg/mL | – | – | – | – | – | –
CC1(C)O[C@H]2OC(COCC(O)CN3CCCCC3)[C@@H]3OC(C)(C)O[C@@H]3[C@H]2O1 (stereo partly specified) | > 50 µg/mL | > 50 µg/mL | 25 µg/mL (≈ 62.3 µM) | > 50 µg/mL | 50 µg/mL (≈ 125 µM) | > 50 µg/mL | > 50 µg/mL | – | – | – | – | – | –
CC1(C)O[C@H]2OC(COCC(O)CN3CCOCC3)[C@@H]3OC(C)(C)O[C@@H]3[C@H]2O1 (stereo partly specified) | > 50 µg/mL | > 50 µg/mL | 25 µg/mL (≈ 62 µM) | > 50 µg/mL | 50 µg/mL (≈ 124 µM) | > 50 µg/mL | > 50 µg/mL | – | – | – | – | – | –
CC1(C)O[C@@H]2OC(COCC(O)CNCCCNCC(O)COCC3O[C@@H]4OC(C)(C)O[C@@H]4[C@H]4OC(C)(C)O[C@@H]34)[C@H]3OC(C)(C)O[C@H]3[C@@H]2O1 (stereo partly specified) | > 50 µg/mL | > 50 µg/mL | 25 µg/mL (≈ 35.4 µM) | > 50 µg/mL | 50 µg/mL (≈ 70.7 µM) | > 50 µg/mL | > 50 µg/mL | – | – | – | – | – | –
CC1(C)O[C@H]2OC(COCC(O)CN3CCN(c4cccc(Cl)n4)CC3)[C@@H]3OC(C)(C)O[C@@H]3[C@H]2O1 (stereo partly specified) | > 50 µg/mL | > 50 µg/mL | 12.5 µg/mL (≈ 24.3 µM) | > 50 µg/mL | 25 µg/mL (≈ 48.6 µM) | > 50 µg/mL | > 50 µg/mL | – | – | – | – | – | –
CCCCCCCCCCCCNCC(O)COCC1O[C@@H]2OC(C)(C)O[C@@H]2[C@H]2OC(C)(C)O[C@@H]12 (stereo partly specified) | 6.25 µg/mL (≈ 12.5 µM) | 25 µg/mL (≈ 49.8 µM) | 1.56 µg/mL (≈ 3.11 µM) | 12.5 µg/mL (≈ 24.9 µM) | 6.25 µg/mL (≈ 12.5 µM) | 12.5 µg/mL (≈ 24.9 µM) | 6.25 µg/mL (≈ 12.5 µM) | – | – | – | – | – | –
CC1(C)O[C@@H]2OC(COCC(O)CNCCCCCCCCCNCC(O)COCC3O[C@@H]4OC(C)(C)O[C@@H]4[C@H]4OC(C)(C)O[C@@H]34)[C@H]3OC(C)(C)O[C@H]3[C@@H]2O1 (stereo partly specified) | > 50 µg/mL | > 50 µg/mL | 25 µg/mL (≈ 31.6 µM) | > 50 µg/mL | 50 µg/mL (≈ 63.2 µM) | > 50 µg/mL | > 50 µg/mL | – | – | – | – | – | –
CC1(C)O[C@H]2OC(COCC(O)CNCc3ccco3)[C@@H]3OC(C)(C)O[C@@H]3[C@H]2O1 (stereo partly specified) | > 50 µg/mL | > 50 µg/mL | 25 µg/mL (≈ 60.5 µM) | > 50 µg/mL | 50 µg/mL (≈ 121 µM) | > 50 µg/mL | > 50 µg/mL | – | – | – | – | – | –
CC1(C)O[C@@H]2OC(COCC(O)CNCCCCCCCNCC(O)COCC3O[C@@H]4OC(C)(C)O[C@@H]4[C@H]4OC(C)(C)O[C@@H]34)[C@H]3OC(C)(C)O[C@H]3[C@@H]2O1 (stereo partly specified) | > 50 µg/mL | > 50 µg/mL | 50 µg/mL (≈ 65.5 µM) | > 50 µg/mL | 50 µg/mL (≈ 65.5 µM) | > 50 µg/mL | > 50 µg/mL | – | – | – | – | – | –
CCCCCCCCCCCCCCCCNCC(O)COCC1O[C@@H]2OC(C)(C)O[C@@H]2[C@H]2OC(C)(C)O[C@@H]12 (stereo partly specified) | 25 µg/mL (≈ 44.8 µM) | 25 µg/mL (≈ 44.8 µM) | 6.25 µg/mL (≈ 11.2 µM) | 12.5 µg/mL (≈ 22.4 µM) | 12.5 µg/mL (≈ 22.4 µM) | 25 µg/mL (≈ 44.8 µM) | 25 µg/mL (≈ 44.8 µM) | – | – | – | – | – | –
C[C@@H]1CN(c2c(F)c(N)c3c(=O)c(C(=O)O)cn(C4CC4)c3c2F)C[C@H](C)N1 | – | – | – | – | – | – | – | No growth | 1-20 colonies | No growth | No growth | No growth | –
CC1(C)O[C@@H]2OC(COCC(O)CNCCCCCCCCCCNCC(O)COCC3O[C@@H]4OC(C)(C)O[C@@H]4[C@H]4OC(C)(C)O[C@@H]34)[C@H]3OC(C)(C)O[C@H]3[C@@H]2O1 (stereo partly specified) | > 50 µg/mL | > 50 µg/mL | 12.5 µg/mL (≈ 15.5 µM) | > 50 µg/mL | 50 µg/mL (≈ 62.1 µM) | > 50 µg/mL | > 50 µg/mL | – | – | – | – | – | –
CC1(C)O[C@@H]2OC(COCC(O)CNCCCCCCCCCCCCNCC(O)COCC3O[C@@H]4OC(C)(C)O[C@@H]4[C@H]4OC(C)(C)O[C@@H]34)[C@H]3OC(C)(C)O[C@H]3[C@@H]2O1 (stereo partly specified) | > 50 µg/mL | > 50 µg/mL | 12.5 µg/mL (≈ 15 µM) | 1.56 µg/mL (≈ 1.87 µM) | 50 µg/mL (≈ 60 µM) | > 50 µg/mL | > 50 µg/mL | – | – | – | – | – | 1-20 colonies
CC(=O)N1CCN(c2ccc(OC[C@H]3CO[C@](Cn4ccnc4)(c4ccc(Cl)cc4Cl)O3)cc2)CC1 [KETOCONAZOLE] | 0.25 µg/mL (≈ 0.47 µM) | 0.12 µg/mL (≈ 0.226 µM) | 0.12 µg/mL (≈ 0.226 µM) | – | 0.25 µg/mL (≈ 0.47 µM) | 0.001 µg/mL (≈ 0.00188 µM) | 0.5 µg/mL (≈ 0.941 µM) | – | – | – | – | – | –
CC1(C)O[C@H]2OC(COCC(O)CNCc3ccccc3)[C@@H]3OC(C)(C)O[C@@H]3[C@H]2O1 (stereo partly specified) | > 50 µg/mL | > 50 µg/mL | 25 µg/mL (≈ 59 µM) | > 50 µg/mL | 50 µg/mL (≈ 118 µM) | > 50 µg/mL | > 50 µg/mL | – | – | – | – | – | –
CC[C@@H](CO)NCCN[C@@H](CC)CO [ETHAMBUTOL] | – | – | – | 3.25 µg/mL (≈ 15.9 µM) | – | – | – | – | – | – | – | – | –
CCCCCCCC/C=C/CCCCCCCCNCC(O)COCC1O[C@@H]2OC(C)(C)O[C@@H]2[C@H]2OC(C)(C)O[C@@H]12 (stereo partly specified) | 50 µg/mL (≈ 85.6 µM) | > 50 µg/mL | 6.25 µg/mL (≈ 10.7 µM) | 12.5 µg/mL (≈ 21.4 µM) | 25 µg/mL (≈ 42.8 µM) | 50 µg/mL (≈ 85.6 µM) | 50 µg/mL (≈ 85.6 µM) | – | – | – | – | – | –
